Patent publication US20080311126A1, “Antisense Oligonucleotides Directed to Ribonucleotide Reducatase R2 and Uses Thereof in Combination Therapies for the Treatment of Cancer” (Genesense Technologies, Inc, priority 2004, published 2008)
Oligonucleotides are written 5' to 3', each unit as a sugar letter and its base; * is a phosphorothioate linkage, no mark a phosphodiester; rarer units and linkages stand in square brackets, end groups in braces. Plain capitals give the bases only. d = 2'-deoxy (DNA)

Legend:
Hela S3 cells [1] = assay: Sensitization to chemotherapeutics by AS-II-2229B-20, relative colony forming efficiency; format: cell-based, human; conditions: HeLa S3
Experimental: (§1) Colony forming efficiency was determined using standard protocols. Briefly, the cells were cultured for 24 hours at 37° C. in growth medium with 10% fetal bovine serum. The cells were washed in 5 ml phosphate buffered saline, pH 7.2, once prior to lipofectin +/−oligonucleotide treatment.
(§2) The test oligonucleotides were added to cell cultures in the presence of 2.5 μg of DOTMA/DOPE (Lipofectin; Life Technologies, Inc.) for four hours. The oligonucleotide was tested at 0.2 μM unless otherwise indicated. Controls were the cultures treated with lipofectin but without the oligonucleotide. After 4 hours the medium containing the oligonucleotide was removed and washed with 5 ml of growth medium. The cells were then cultured in growth medium containing 10% fetal bovine serum for seven to ten days. Surviving cells were visualized by methylene blue staining, and colonies were scored. In some experiments cell aliquots were removed from the culture and viability was determined using the trypan blue exclusion test. Results were analyzed as percent of surviving cells compared to control cells.
(§3) Treatment of human tumour cells with very low concentrations of short antisense sequences was tested to determine if these constructs could sensitize the tumour cells to inhibitory effects of other chemotherapeutic drugs.

Hela 1 mM cells = assay: as above; format: cell-based, human; conditions: HeLa 1 mM
Experimental: as §1, §2, §3

Hela S3 cells [2] = assay: Relative colony forming efficiency, lipofectin +/- oligonucleotide 4 hours; format: cell-based, human; conditions: Hela S3 cervix carcinoma cells; averages of 2-8 determinations
Method in brief: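 HeLa S3 cells were exposed to phosphorothioate antisense oligonucleotide (0.2 μM unless stated) with lipofectin for 4 h, then grown 7–10 days in 10% FBS medium. Methylene blue-stained colonies were counted and expressed as percent survival relative to lipofectin-only controls.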

A549 lung cell carcinoma = assay: Relative colony forming efficiency (Example 17, Table 13); format: cell-based, human; conditions: averages of 2-8 determinations
Method in brief: (§4)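 Phosphorothioate antisense oligonucleotides were delivered to tumour cell cultures with 2.5 μg DOTMA/DOPE (Lipofectin) over four hours, at 0.2 μM unless otherwise indicated. Surviving colonies were stained with methylene blue and scored. Values are % inhibition of colony formation relative to lipofectin-only controls.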

[3] = tested on: T-47D breast ductal carcinoma; assay: as above; format: cell-based, human; conditions: averages of 2-8 determinations
Method in brief: as §4

[4] = tested on: H596 lung adenosquamous carcinoma cells; assay: as above; format: cell-based, human; conditions: averages of 2-8 determinations
Method in brief: as §4

[5] = tested on: MDA-MB-231 breast cell adenocarcinoma; assay: as above; format: cell-based, human; conditions: averages of 2-8 determinations
Method in brief: as §4

[6] = tested on: MDA PaCa-2 pancreatic cell carcinoma; assay: as above; format: cell-based, human; conditions: MIA PaCa-2 pancreatic cell carcinoma; averages of 2-8 determinations
Method in brief: as §4

[7] = tested on: T24 bladder cell carcinoma; assay: as above; format: cell-based, human; conditions: averages of 2-8 determinations
Method in brief: as §4

[8] = tested on: HepG2 hepatocellular carcinoma; assay: as above; format: cell-based, human; conditions: averages of 2-8 determinations
Method in brief: as §4

[9] = tested on: PC-3 prostrate cell adenocarcinoma; assay: as above; format: cell-based, human; conditions: averages of 2-8 determinations
Method in brief: as §4

[10] = tested on: HCT116 colon cell carcinoma; assay: as above; format: cell-based, human; conditions: averages of 2-8 determinations
Method in brief: as §4

[11] = tested on: HT-29 human colon cancer cells; assay: HT-29 colon tumour xenograft in CD-1 nude mice; format: in vivo
Experimental: HT-29 human colon cancer cells (3×10^6 cells in 100 μl of PBS) were subcutaneously injected into the right flank of 6-7 weeks old female CD-1 nude mice. After the size of tumour reached an approximate volume of 50 mm^3, 4 days post tumour cell injection, mitomycin C was administered by bolus infusion into the tail vein at days 4, 11 and 18 with a dose of 3.5 mg/kg/week. Antitumour effect of mitomycin C was further compared to that of SEQ ID NO:1 in combination with mitomycin C. SEQ ID NO:1 was administered by bolus infusion into the tail vein every day at 6 mg/kg and mitomycin C was administered intravenously at days 4, 11 and 18 with a dose of 3.5 mg/kg/week, one hour after the treatments with SEQ ID NO:1. Control animals received saline alone for the same period as SEQ ID NO:1. All treatments were stopped at day 22. A day after the last treatment, tumours were excised from the animals and their weights were measured.
HT-29 human colon cancer cells (3×10^6 cells in 100 μl of PBS) were subcutaneously injected into the right flank of 5-6 week old female CD-1 nude mice. After the size of tumour reached an approximate volume of 100 mm^3, 7 days post tumour cell injection, SEQ ID NO:1 was administered by bolus infusion into the tail vein every other day at 10 mg/kg. Control animals received saline alone for the same period. Antitumour effect of SEQ ID NO:1 was further compared to that of CPT-11 alone or that of SEQ ID NO:1 in combination with CPT-11. CPT-11 was administered intraperitoneally for 5 days in a row from […] with a dose of 20 mg/kg in 100 μl saline. All treatments were stopped at day 32. A day after the last treatment, tumours were excised from the animals and their weights were measured.
HT-29 human colon cancer cells (3×10^6 cells in 100 μl of PBS) were subcutaneously injected into the right flank of 6-7 week old female CD-1 nude mice. Treatments started at day 5 post tumour cell injection, SEQ ID NO:1 and 5-FU were administered as outlined below: • Groups and treatment: • Group 1. Saline treated group: saline:0.1 ml/2 days, i.v.; • Group 2. SEQ ID NO:1 treated group: 10 mg/kg/2 days in 100 μL saline, i.v.; • Group 3. 5-FU treated group:13 mg/kg/5 days/week (one week on and one week off), i.v.; • Group 4. SEQ ID NO:1 plus 5-FU treated group.
HT-29 human colon cancer cells (3×10^6 cells in 100 μl of PBS) were subcutaneously injected into the right flank of 5-6 week old female CD-1 nude mice. Treatments started 4 days post tumour cell injection, SEQ ID NO: 1 and Capecitabine were administered as outlined below: • Group and Treatment: • Group 1: treated with 0.2 ml vehicle solution for capecitabine, o.p.; • Group 2: treated with 0.1 ml saline, i.v.; • Group 3: treated with 359 mg/kg/day×5/w Capecitabine in 0.2 ml vehicle solution, o.p.; • Group 4: treated with 10 mg/kg/2 days SEQ ID NO:1 in 0.1 ml saline i.v.; • Group 5: treated with 10 mg/kg/2 days SEQ ID NO:1 in 0.1 ml saline, i.v. plus 359 mg/kg/day×5/w capecitabine in 0.2 ml vehicle solution, o.p.

[12] = drug 40 μM, with AS-II-2229B-20 0.02 μM
[13] = drug 40 μM, without AS-II-2229B-20
[14] = drug 60 μM, with AS-II-2229B-20 0.02 μM
[15] = drug 60 μM, without AS-II-2229B-20
[16] = drug 20 μM, with AS-II-2229B-20 0.02 μM
[17] = drug 20 μM, without AS-II-2229B-20

CN(Cc1cnc2nc(N)nc(N)c2n1)c1ccc(C(=O)N[C@@H](CCC(=O)O)C(=O)O)cc1 [MTX, methotrexate]
Relative colony Forming Efficiency (Hela S3 cells [1]; [12]): 25 ± 5
Relative colony Forming Efficiency (Hela S3 cells [1]; [13]): 118 ± 32
Relative colony Forming Efficiency (Hela S3 cells [1]; [14]): 0
Relative colony Forming Efficiency (Hela S3 cells [1]; [15]): 116 ± 13
Relative colony Forming Efficiency (Hela 1 mM cells; [12]): 6.5 ± 5.5
Relative colony Forming Efficiency (Hela 1 mM cells; [13]): 28 ± 10
Relative colony Forming Efficiency (Hela 1 mM cells; [14]): 3.5 ± 0.5
Relative colony Forming Efficiency (Hela 1 mM cells; [15]): 12 ± 0.5

O=C(O)C[C@H](NC(=O)CP(=O)(O)O)C(=O)O [PALA, N-(phosphonacetyl)-L-aspartate]
Relative colony Forming Efficiency (Hela S3 cells [1]; [16]): 90 ± 10
Relative colony Forming Efficiency (Hela S3 cells [1]; [17]): 350 ± 50
Relative colony Forming Efficiency (Hela 1 mM cells; [16]): 108 ± 7.5
Relative colony Forming Efficiency (Hela 1 mM cells; [17]): 377 ± 21
Relative colony Forming Efficiency (Hela 1 mM cells; drug 30 μM, with AS-II-2229B-20 0.02 μM): 101 ± 2.0
Relative colony Forming Efficiency (Hela 1 mM cells; drug 30 μM, without AS-II-2229B-20): 311 ± 9.5

AS-II-1560.20 (antisense dG*dT*dA*dA*dG*dT*dC*dA*dC*dA*dG*dC*dC*dA*dG*dC*dC*dA*dG*dG)
Reduced relative colony forming efficiency, Hela S3 (% inhibition of colony forming ability) (Hela S3 cells [2]): 82.16%
Reduced relative colony forming efficiency, A549 (% inhibition of colony forming ability) (A549 lung cell carcinoma): 84.19%
Reduced relative colony forming efficiency, T-47D (% inhibition of colony forming ability) [3]: 86.6%
Reduced relative colony forming efficiency, 11596 (% inhibition of colony forming ability) [4]: 71.16%
Reduced relative colony forming efficiency, MDA-MB-231 (% inhibition of colony forming ability) [5]: 46.15%
Reduced relative colony forming efficiency, MIA PaCa-2 (% inhibition of colony forming ability) [6]: 33.3%
Reduced relative colony forming efficiency, T24 (% inhibition of colony forming ability) [7]: 32.49%
Reduced relative colony forming efficiency, HepG2 (% inhibition of colony forming ability) [8]: 73.63%
Reduced relative colony forming efficiency, PC-3 (% inhibition of colony forming ability) [9]: 78.37%
Reduced relative colony forming efficiency, HCT116 (% inhibition of colony forming ability) [10]: 85.81%

CO[C@@]12[C@H](COC(N)=O)C3=C(C(=O)C(C)=C(N)C3=O)N1C[C@@H]1N[C@@H]12 [Mitomycin C, reference compound]
antitumour effect (tumour weight) ([11]; Example 12.1, mitomycin C 3.5 mg/kg/week i.v., SEQ ID NO:1 6 mg/kg every day i.v.): significant delay of tumour growth
Tumour weight as % of saline control ([11]; HT-29 (colon), Mouse CD-1, Mitomycin C study): 15%

G*CG*AAG*CAG*AGC*GAG*CAGC*C (antisense dG*dCdG*dAdAdG*dCdAdG*dAdGdC*dGdAdG*dCdAdGdC*dC) [AS-II-163-20]
Reduced relative colony forming efficiency, Hela S3 (% inhibition of colony forming ability) (Hela S3 cells [2]): 45.8%
Reduced relative colony forming efficiency, A549 (% inhibition of colony forming ability) (A549 lung cell carcinoma): 37.13%
Reduced relative colony forming efficiency, T-47D (% inhibition of colony forming ability) [3]: 9.81%
Reduced relative colony forming efficiency, 11596 (% inhibition of colony forming ability) [4]: 32.08%
Reduced relative colony forming efficiency, MDA-MB-231 (% inhibition of colony forming ability) [5]: 22.73%
Reduced relative colony forming efficiency, MIA PaCa-2 (% inhibition of colony forming ability) [6]: 9.88%
Reduced relative colony forming efficiency, T24 (% inhibition of colony forming ability) [7]: 5.49%
Reduced relative colony forming efficiency, HepG2 (% inhibition of colony forming ability) [8]: 18.64%
Reduced relative colony forming efficiency, PC-3 (% inhibition of colony forming ability) [9]: 7.14%
Reduced relative colony forming efficiency, HCT116 (% inhibition of colony forming ability) [10]: 29.05%

GGCGACCCCTCACTCCAGCA (antisense dG*dG*dC*dG*dA*dC*dC*dC*dC*dT*dC*dA*dC*dT*dC*dC*dA*dG*dC*dA) [AS-II-114-20]
Reduced relative colony forming efficiency, Hela S3 (% inhibition of colony forming ability) (Hela S3 cells [2]): 79.25%
Reduced relative colony forming efficiency, A549 (% inhibition of colony forming ability) (A549 lung cell carcinoma): 83.51%
Reduced relative colony forming efficiency, T-47D (% inhibition of colony forming ability) [3]: 90.83%
Reduced relative colony forming efficiency, 11596 (% inhibition of colony forming ability) [4]: 46.3%
Reduced relative colony forming efficiency, MDA-MB-231 (% inhibition of colony forming ability) [5]: 76.22%
Reduced relative colony forming efficiency, MIA PaCa-2 (% inhibition of colony forming ability) [6]: 90.05%
Reduced relative colony forming efficiency, T24 (% inhibition of colony forming ability) [7]: 87.45%
Reduced relative colony forming efficiency, HepG2 (% inhibition of colony forming ability) [8]: 78.72%
Reduced relative colony forming efficiency, PC-3 (% inhibition of colony forming ability) [9]: 92.66%
Reduced relative colony forming efficiency, HCT116 (% inhibition of colony forming ability) [10]: 86.1%

AGGACTGGTTGTGAGGTAGC (antisense dA*dG*dG*dA*dC*dT*dG*dG*dT*dT*dG*dT*dG*dA*dG*dG*dT*dA*dG*dC) [AS-II-1499-20]
Reduced relative colony forming efficiency, Hela S3 (% inhibition of colony forming ability) (Hela S3 cells [2]): 87.56%
Reduced relative colony forming efficiency, A549 (% inhibition of colony forming ability) (A549 lung cell carcinoma): 87.8%
Reduced relative colony forming efficiency, T-47D (% inhibition of colony forming ability) [3]: 96.67%
Reduced relative colony forming efficiency, 11596 (% inhibition of colony forming ability) [4]: 78.3%
Reduced relative colony forming efficiency, MDA-MB-231 (% inhibition of colony forming ability) [5]: 41.26%
Reduced relative colony forming efficiency, MIA PaCa-2 (% inhibition of colony forming ability) [6]: 81.17%
Reduced relative colony forming efficiency, T24 (% inhibition of colony forming ability) [7]: 82.81%
Reduced relative colony forming efficiency, HepG2 (% inhibition of colony forming ability) [8]: 77.5%
Reduced relative colony forming efficiency, PC-3 (% inhibition of colony forming ability) [9]: 77.28%
Reduced relative colony forming efficiency, HCT116 (% inhibition of colony forming ability) [10]: 83.01%
